Reference: patent US9107876B2, “Surface anesthetic agent” (YAMAGUCHI UNIVERSITY, priority 2009, dated 2015)

Tested on: buccal mucosal membrane
Experiment: Needle stab after applying the surface anesthetic agent to the buccal mucosal membrane: time for the painless effect to be exerted
Format: in vivo
Conditions: 200 mg applied with a cotton swab to the buccal mucosal membrane, then a needle stabbed
Procedure: Various surface anesthetic agents mentioned above were applied to the buccal mucosal membrane, and then a needle was stabbed, and the time for the painless effect to be exerted and the time for the pain to start again were measured.
(1) As a sample of tetracaine alone, 200 mg (12 mg tetracaine) COPALON was attached to a cotton swab, and applied to the buccal mucosal membrane.
(2) As a sample of lidocaine alone, 200 mg Xylocaine jelly (4 mg lidocaine) was attached to a cotton swab, and applied to the buccal mucosal membrane.
(3) As a sample of a combination use of tetracaine and lidocaine, various mixtures of tetracaine and lidocaine in 92:8, 82:18, 67:33 and 43:57 mass ratios were prepared by varying the blending ratio of COPALON and Xylocaine jelly to 80:20, 60:40, 40:60 and 20:80. 200 mg of each of the prepared mixtures was attached to a cotton swab, and applied to the buccal mucosal membrane. […]
Various surface anesthetic agents containing tetracaine and/or lidocaine mentioned above were applied to the buccal mucosal membrane, and then a needle was stabbed, and the time for the painless effect to be exerted and the time for the pain to start again were measured.

CCN(CC)CC(=O)Nc1c(C)cccc1C [Comparative Example 1-2, 2-(diethylamino)-N-(2,6-dimethylphenyl) acetamide]
time for the painless effect to be exerted after the application: 5 min
